Test results as given in patent US8802597B2, “Herbicidal pyrimidines” (E I du Pont de Nemours and Company, priority 2003, dated 2014).

Columns and labels:
Type in all cases: in vivo
[1] = system: wild oat (Avena fatua); test: Test C postemergence; details: for Plant response rating, Oat, Wild: scale 0 to 100
Summary of the method: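 We sprayed seeded pots preemergence and 2–18 cm seedlings postemergence with test chemicals in a non-phytotoxic solvent mixture including surfactant. Greenhouse plants were visually compared with untreated controls at 12 to 14 days and scored 0 (no effect) to 100 (complete control).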

[2] = system: barnyardgrass (Echinochloa crus-galli); test: Test G pre/postemergence
From the text: (§1) Seeds or nutlets of plant species selected from bermudagrass (Cynodon dactylon), Surinam grass (Brachiaria decumbens), large crabgrass (Digitaria sanguinalis), green foxtail (Setaria viridis), goosegrass (Eleusine indica), johnsongrass (Sorghum halepense), kochia (Kochia scoparia), pitted morningglory (Ipomoea lacunosa), purple nutsedge (Cyperus rotundus), common ragweed (Ambrosia elatior), black mustard (Brassica nigra), guineagrass (Panicum maximum), dallisgrass (Paspalum dilatatum), barnyardgrass (Echinochloa crus-galli), southern sandbur (Cenchrus echinatus), common sowthistle (Sonchus oleraceous), prickly sida (Sida spinosa), Italian ryegrass (Lolium multiflorum), common purslane (Portulaca oleracea), broadleaf signalgrass (Brachiaria platyphylla), common groundsel (Senecio vulgaris), common chickweed (Stellaria media), tropical spiderwort (Commelina benghalensis), annual bluegrass (Poa annua), downy bromegrass (Bromus tectorum), itchgrass (Rottboellia cochinchinensis), quackgrass (Elytrigia repens), Canada horseweed (Conyza canadensis), field bindweed (Convolvulus arvensis), spanishneedles (Bidens bipinnata), common mallow (Malva sylvestris), and Russian thistle (Salsola kali) were planted and treated preemergence with test chemicals formulated in a non-phytotoxic solvent mixture which included a surfactant.
(§2) At the same time, plants selected from these weed species were treated with postemergence applications of some of the test chemicals formulated in the same manner. Plants ranged in height from 2 to 18 cm (1- to 4-leaf stage) for postemergence treatments. Treated plants and controls were maintained in a greenhouse for 12 to 21 days, after which time all species were compared to controls and visually evaluated.
(§3) Plant response ratings, summarized in Table G, are based on a scale of 0 to 100 where 0 is no effect and 100 is complete control. A dash (-) response means no test result.

[3] = system: broadleaf signalgrass (Brachiaria platyphylla); test: Test G pre/postemergence
From the text: as §1, §2, §3

[4] = system: common ragweed (Ambrosia elatior); test: Test G pre/postemergence
From the text: as §1, §2, §3

[5] = system: downy bromegrass (Bromus tectorum); test: Test G pre/postemergence
From the text: as §1, §2, §3

[6] = system: field bindweed (Convolvulus arvensis); test: Test G pre/postemergence
From the text: as §1, §2, §3

[7] = system: goosegrass (Eleusine indica); test: Test G pre/postemergence
From the text: as §1, §2, §3

[8] = system: guineagrass (Panicum maximum); test: Test G pre/postemergence
From the text: as §1, §2, §3

[9] = system: large crabgrass (Digitaria sanguinalis); test: Test G pre/postemergence
From the text: as §1, §2, §3

[10] = system: prickly sida (Sida spinosa); test: Test G pre/postemergence
From the text: as §1, §2, §3

[11] = system: tropical spiderwort (Commelina benghalensis); test: Test G pre/postemergence
From the text: as §1, §2, §3

[12] = Preemergence, 62 g ai/ha, scale 0-100
[13] = Preemergence, 125 g ai/ha, scale 0-100
[14] = Preemergence, 250 g ai/ha, scale 0-100
[15] = Preemergence, 500 g ai/ha, scale 0 to 100
[16] = Postemergence, 250 g ai/ha, scale 0 to 100
[17] = Postemergence, 16 g ai/ha, scale 0 to 100
[18] = Postemergence, 31 g ai/ha, scale 0 to 100
[19] = Postemergence, 62 g ai/ha, scale 0 to 100
[20] = Postemergence, 125 g ai/ha, scale 0 to 100
[21] = Preemergence, 16 g ai/ha, scale 0-100
[22] = Preemergence, 31 g ai/ha, scale 0-100

In the case of `CCOC(=O)c1nc(C2CC2)nc(N)c1Cl` [Compound 4, ethyl 6-amino-5-chloro-2-cyclopropyl-4-pyrimidinecarboxylate], the “Plant response rating, Oat, Wild” value ([1]; 250 g ai/ha) is reported as 70, the “Plant response rating, Oat, Wild” value ([1]; 500 g ai/ha) is reported as 70 and the pest or weed control at 62 g/ha ([1]; Avena fatua, post-emergence, 62 g ai/ha, scale 0 to 100 (0 no effect, 100 complete control), read-out: Oat, Wild plant response rating) is reported as 60%. The pest or weed control at 125 g/ha ([1]; Avena fatua, post-emergence, 125 g ai/ha, scale 0 to 100 (0 no effect, 100 complete control), read-out: Oat, Wild plant response rating) was 65%, the “Plant response rating, Barnyardgrass” value [2, 12] was 50 and the “Plant response rating, Barnyardgrass” value [2, 13] was 70. The “Plant response rating, Barnyardgrass” value [2, 14] was 80, the “Plant response rating, Barnyardgrass” value [2, 15] was 100 and the “Plant response rating, Signalgrass” value [3, 12] was 50. The “Plant response rating, Signalgrass” value [3, 13] was 70, the “Plant response rating, Signalgrass” value [3, 14] was 95 and the “Plant response rating, Signalgrass” value [3, 15] was 95. The “Plant response rating, Ragweed” value [4, 12] was 80, the “Plant response rating, Ragweed” value [4, 13] was 100 and the “Plant response rating, Ragweed” value [4, 14] was 100. For the same compound, the “Plant response rating, Ragweed” value [4, 15] was 100, the “Plant response rating, Bromegrass, Downy” value [5, 12] was 30 and the “Plant response rating, Bromegrass, Downy” value [5, 13] was 70. The “Plant response rating, Bromegrass, Downy” value [5, 14] was 100, the “Plant response rating, Bromegrass, Downy” value [5, 15] was 100 and the “Plant response rating, Bindweed, Field” value [6, 12] was 100. The “Plant response rating, Bindweed, Field” value [6, 13] was 100, the “Plant response rating, Bindweed, Field” value [6, 14] was 100 and the “Plant response rating, Bindweed, Field” value [6, 15] was 100. For the same compound, the “Plant response rating, Goosegrass” value [7, 12] was 10, the “Plant response rating, Goosegrass” value [7, 13] was 60 and the “Plant response rating, Goosegrass” value [7, 14] was 70. The “Plant response rating, Goosegrass” value [7, 15] was 90, the “Plant response rating, Guineagrass” value [8, 12] was 95 and the “Plant response rating, Guineagrass” value [8, 13] was 95. The “Plant response rating, Guineagrass” value [8, 14] was 100, the “Plant response rating, Guineagrass” value [8, 15] was 100 and the “Plant response rating, Crabgrass, Large” value [9, 12] was 60. For the same compound, the “Plant response rating, Crabgrass, Large” value [9, 13] was 75, the “Plant response rating, Crabgrass, Large” value [9, 14] was 100 and the “Plant response rating, Crabgrass, Large” value [9, 15] was 100. For the same compound, the “Plant response rating, Prickly Sida” value [10, 12] was 85, the “Plant response rating, Prickly Sida” value [10, 13] was 100 and the “Plant response rating, Prickly Sida” value [10, 14] was 100. The “Plant response rating, Prickly Sida” value [10, 15] was 100, the “Plant response rating, Spiderwort” value [11, 12] was 100 and the “Plant response rating, Spiderwort” value [11, 13] was 100. For the same compound, the “Plant response rating, Spiderwort” value [11, 14] was 100 and the “Plant response rating, Spiderwort” value [11, 15] was 100.

With `Nc1nc(C2CC2)nc(C(=O)[O-])c1Cl.[Na+]` [Compound 77, 6-amino-5-chloro-2-cyclopropyl-4-pyrimidinecarboxylic acid monosodium salt] the “Plant response rating, Barnyardgrass” value [2, 16] was 75, the “Plant response rating, Barnyardgrass” value [2, 17] was 0 and the “Plant response rating, Barnyardgrass” value [2, 18] was 10. For the same compound, the “Plant response rating, Barnyardgrass” value [2, 19] was 40, the “Plant response rating, Barnyardgrass” value [2, 20] was 65 and the “Plant response rating, Barnyardgrass” value [2, 21] was 50. For the same compound, the “Plant response rating, Barnyardgrass” value [2, 22] was 55, the “Plant response rating, Barnyardgrass” value [2, 12] was 75 and the “Plant response rating, Barnyardgrass” value [2, 13] was 85. The “Plant response rating, Barnyardgrass” value [2, 14] was 90, the “Plant response rating, Signalgrass” value [3, 16] was 70 and the “Plant response rating, Signalgrass” value [3, 17] was 0. For the same compound, the “Plant response rating, Signalgrass” value [3, 18] was 30, the “Plant response rating, Signalgrass” value [3, 19] was 50 and the “Plant response rating, Signalgrass” value [3, 20] was 60. For the same compound, the “Plant response rating, Signalgrass” value [3, 21] was 5, the “Plant response rating, Signalgrass” value [3, 22] was 10 and the “Plant response rating, Signalgrass” value [3, 12] was 75. For the same compound, the “Plant response rating, Signalgrass” value [3, 13] was 90, the “Plant response rating, Signalgrass” value [3, 14] was 95 and the “Plant response rating, Ragweed” value [4, 16] was 100. For the same compound, the “Plant response rating, Ragweed” value [4, 17] was 75, the “Plant response rating, Ragweed” value [4, 18] was 75 and the “Plant response rating, Ragweed” value [4, 19] was 95. The “Plant response rating, Ragweed” value [4, 20] was 98, the “Plant response rating, Ragweed” value [4, 21] was 80 and the “Plant response rating, Ragweed” value [4, 22] was 95. For the same compound, the “Plant response rating, Ragweed” value [4, 12] was 100, the “Plant response rating, Ragweed” value [4, 13] was 100 and the “Plant response rating, Ragweed” value [4, 14] was 100. The “Plant response rating, Bromegrass, Downy” value [5, 16] was 75, the “Plant response rating, Bromegrass, Downy” value [5, 17] was 0 and the “Plant response rating, Bromegrass, Downy” value [5, 18] was 20. For the same compound, the “Plant response rating, Bromegrass, Downy” value [5, 19] was 35, the “Plant response rating, Bromegrass, Downy” value [5, 20] was 65 and the “Plant response rating, Bromegrass, Downy” value [5, 21] was 0. The “Plant response rating, Bromegrass, Downy” value [5, 22] was 0, the “Plant response rating, Bromegrass, Downy” value [5, 12] was 0 and the “Plant response rating, Bromegrass, Downy” value [5, 13] was 10. The “Plant response rating, Bromegrass, Downy” value [5, 14] was 75, the “Plant response rating, Bindweed, Field” value [6, 16] was 100 and the “Plant response rating, Bindweed, Field” value [6, 17] was 70. The “Plant response rating, Bindweed, Field” value [6, 18] was 98, the “Plant response rating, Bindweed, Field” value [6, 19] was 98 and the “Plant response rating, Bindweed, Field” value [6, 20] was 100. The “Plant response rating, Bindweed, Field” value [6, 21] was 80, the “Plant response rating, Bindweed, Field” value [6, 22] was 90 and the “Plant response rating, Bindweed, Field” value [6, 12] was 95. For the same compound, the “Plant response rating, Bindweed, Field” value [6, 13] was 100, the “Plant response rating, Bindweed, Field” value [6, 14] was 100 and the “Plant response rating, Goosegrass” value [7, 16] was 65. For the same compound, the “Plant response rating, Goosegrass” value [7, 17] was 0, the “Plant response rating, Goosegrass” value [7, 18] was 15 and the “Plant response rating, Goosegrass” value [7, 19] was 50. The “Plant response rating, Goosegrass” value [7, 20] was 50, the “Plant response rating, Goosegrass” value [7, 21] was 0 and the “Plant response rating, Goosegrass” value [7, 22] was 5. The “Plant response rating, Goosegrass” value [7, 12] was 5, the “Plant response rating, Goosegrass” value [7, 13] was 25 and the “Plant response rating, Goosegrass” value [7, 14] was 55. The “Plant response rating, Guineagrass” value [8, 16] was 75, the “Plant response rating, Guineagrass” value [8, 17] was 0 and the “Plant response rating, Guineagrass” value [8, 18] was 0. For the same compound, the “Plant response rating, Guineagrass” value [8, 19] was 65, the “Plant response rating, Guineagrass” value [8, 20] was 65 and the “Plant response rating, Guineagrass” value [8, 21] was 30. For the same compound, the “Plant response rating, Guineagrass” value [8, 22] was 70, the “Plant response rating, Guineagrass” value [8, 12] was 85 and the “Plant response rating, Guineagrass” value [8, 13] was 85. The “Plant response rating, Guineagrass” value [8, 14] was 95, the “Plant response rating, Crabgrass, Large” value [9, 16] was 75 and the “Plant response rating, Crabgrass, Large” value [9, 17] was 60. The “Plant response rating, Crabgrass, Large” value [9, 18] was 70, the “Plant response rating, Crabgrass, Large” value [9, 19] was 75 and the “Plant response rating, Crabgrass, Large” value [9, 20] was 75. For the same compound, the “Plant response rating, Crabgrass, Large” value [9, 21] was 45, the “Plant response rating, Crabgrass, Large” value [9, 22] was 45 and the “Plant response rating, Crabgrass, Large” value [9, 12] was 80. For the same compound, the “Plant response rating, Crabgrass, Large” value [9, 13] was 85, the “Plant response rating, Crabgrass, Large” value [9, 14] was 90 and the “Plant response rating, Prickly Sida” value [10, 16] was 80. For the same compound, the “Plant response rating, Prickly Sida” value [10, 17] was 70, the “Plant response rating, Prickly Sida” value [10, 18] was 75 and the “Plant response rating, Prickly Sida” value [10, 19] was 80. The “Plant response rating, Prickly Sida” value [10, 20] was 80, the “Plant response rating, Prickly Sida” value [10, 21] was 70 and the “Plant response rating, Prickly Sida” value [10, 22] was 75. For the same compound, the “Plant response rating, Prickly Sida” value [10, 12] was 85, the “Plant response rating, Prickly Sida” value [10, 13] was 90 and the “Plant response rating, Prickly Sida” value [10, 14] was 95. The “Plant response rating, Spiderwort” value [11, 16] was 100, the “Plant response rating, Spiderwort” value [11, 17] was 10 and the “Plant response rating, Spiderwort” value [11, 18] was 50. The “Plant response rating, Spiderwort” value [11, 19] was 75, the “Plant response rating, Spiderwort” value [11, 20] was 90 and the “Plant response rating, Spiderwort” value [11, 21] was 60. For the same compound, the “Plant response rating, Spiderwort” value [11, 22] was 85, the “Plant response rating, Spiderwort” value [11, 12] was 95 and the “Plant response rating, Spiderwort” value [11, 13] was 95. For the same compound, the “Plant response rating, Spiderwort” value [11, 14] was 100.
